Source: US20170355705A1 (GlaxoSmithKline Intellectual Property (No.2) Limited, priority 2014, published 2017)
Read-outs that look alike come from different tables or passages of the source.

Molecular target: T1, SIRT1 (Homo sapiens, UniProt Q96EB6)
T1 sequence (Q96EB6 1-747): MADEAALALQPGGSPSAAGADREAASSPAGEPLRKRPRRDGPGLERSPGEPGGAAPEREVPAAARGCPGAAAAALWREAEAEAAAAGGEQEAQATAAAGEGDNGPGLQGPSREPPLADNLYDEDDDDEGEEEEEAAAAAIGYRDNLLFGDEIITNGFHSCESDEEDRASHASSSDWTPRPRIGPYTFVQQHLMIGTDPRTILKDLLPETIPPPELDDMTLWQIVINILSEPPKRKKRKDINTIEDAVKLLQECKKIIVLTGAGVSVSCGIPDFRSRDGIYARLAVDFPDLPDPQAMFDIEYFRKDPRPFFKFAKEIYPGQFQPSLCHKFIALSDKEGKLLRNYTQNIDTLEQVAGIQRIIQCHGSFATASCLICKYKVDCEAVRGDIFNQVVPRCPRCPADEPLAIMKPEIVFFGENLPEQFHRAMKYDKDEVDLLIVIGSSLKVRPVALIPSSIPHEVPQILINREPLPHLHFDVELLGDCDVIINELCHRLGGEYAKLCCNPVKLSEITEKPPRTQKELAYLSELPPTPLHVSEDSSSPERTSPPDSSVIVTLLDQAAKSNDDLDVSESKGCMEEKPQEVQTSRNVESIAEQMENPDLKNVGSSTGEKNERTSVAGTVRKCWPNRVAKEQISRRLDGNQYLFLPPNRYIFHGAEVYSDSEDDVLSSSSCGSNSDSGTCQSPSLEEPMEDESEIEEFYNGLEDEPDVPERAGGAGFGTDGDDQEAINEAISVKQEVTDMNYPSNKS
Assay: Trp mass spectrometry assay of SIRT1 activity (EC1.5, percent maximum activation)
Assay type: biochemical
How it was run: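 MS readout: O-acetyl-ADP-ribose (or deacetylated peptide) formed by His-tagged SIRT1 (BL21(DE3)-expressed) on 5TMR-Trp p53-based peptide, 25 min, formic acid stop. EC1.5 = concentration raising activity 50% over no-compound control; % max activation vs control = 100%.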

[1] = Trp mass spectrometry assay, 0.5 μM peptide substrate, 120 μM βNAD+, 10 nM SIRT1, 25 minutes at 25° C.
[2] = Trp mass spectrometry assay, EC1.5 = concentration giving 150% activation of SIRT1
[3] = Trp mass spectrometry assay, percent maximum activation of SIRT1

Cc1cc(-c2ccc3c(n2)N(C(=O)Nc2cc(-c4coc(C)n4)ccn2)[C@H]2CCN3C2)ccn1.Cl [Example 334, (4S)-N-(4-(2-methyloxazol-4-yl)pyridin-2-yl)-7-(2-methylpyridin-4-yl)-3,4-dihydro-1,4-methanopyrido[2,3-b][1,4]diazepine-5(2H)-carboxamide]
TRP Activity (EC1.5, concentration of test compound that results in 150% activation of SIRT1) [1]: A (EC1.5<1 μM)
TRP MAX RESP (percent maximum fold activation) [1]: A (Fold activation ≧150%)

N#Cc1ccc(-c2ccc3c(n2)N(C(=O)Nc2cccnc2)[C@H]2CCN3C2)cn1 [Example 245]
TRP MAX RESP (percent maximum fold activation) [1]: A (Fold activation ≧150%)

Cc1ccc(-c2nc3c(cc2Br)N2CC[C@@H](C2)N3C(=O)Nc2cccnc2)cn1 [Example 6, (4S)-8-bromo-7-(6-methylpyridin-3-yl)-N-(pyridin-3-yl)-3,4-dihydro-1,4-methanopyrido[2,3-b][1,4]diazepine-5(2H)-carboxamide]
TRP Activity (EC1.5) [2]: B (EC1.5 1-25 μM)
TRP MAX RESP (percent maximum fold activation) [3]: A (Fold activation ≧150%)

Cc1cncc(NC(=O)N2c3nc(-c4ccnc(C)c4)ccc3N3CC[C@H]2C3)c1 [Example 194, (4S)-N-(5-methylpyridin-3-yl)-7-(2-methylpyridin-4-yl)-3,4-dihydro-1,4-methanopyrido[2,3-b][1,4]diazepine-5(2H)-carboxamide]
TRP Activity (EC1.5) [2]: B (EC1.5 1-25 μM)
TRP MAX RESP (percent maximum fold activation) [3]: A (Fold activation ≧150%)

COc1cc(-c2ccc3c(n2)N(C(=O)Nc2cnccn2)[C@H]2CCN3C2)cc(C)n1 [Example 142, (4S)-7-(2-methoxy-6-methylpyridin-4-yl)-N-(pyrazin-2-yl)-3,4-dihydro-1,4-methanopyrido[2,3-b][1,4]diazepine-5(2H)-carboxamide]
TRP Activity (EC1.5) [2]: B (EC1.5 1-25 μM)
TRP MAX RESP (percent maximum fold activation) [3]: A (Fold activation ≧150%)

O=C(Nc1nccc(OC[C@H](O)CO)n1)N1c2nc(-c3cccc(C(F)(F)F)c3)c(Cl)cc2N2CC[C@H]1C2 [Example 46, (4S)-8-chloro-N-(4-((R)-2,3-dihydroxypropoxy)pyrimidin-2-yl)-7-(3-(trifluoromethyl)phenyl)-3,4-dihydro-1,4-methanopyrido[2,3-b][1,4]diazepine-5(2H)-carboxamide]
TRP Activity (EC1.5) [2]: A (EC1.5<1 μM)
TRP MAX RESP (percent maximum fold activation) [3]: A (Fold activation ≧150%)

O=C(Nc1cnc(OC[C@@H](O)CO)nc1)N1c2nc(-c3cccc(C(F)(F)F)c3)c(Cl)cc2N2CC[C@H]1C2 [Example 80, (4S)-8-chloro-N-(2-((S)-2,3-dihydroxypropoxy)pyrimidin-5-yl)-7-(3-(trifluoromethyl)phenyl)-3,4-dihydro-1,4-methanopyrido[2,3-b][1,4]diazepine-5(2H)-carboxamide]
TRP Activity (EC1.5) [2]: A (EC1.5<1 μM)
TRP MAX RESP (percent maximum fold activation) [3]: A (Fold activation ≧150%)

COc1ncc(C(F)(F)F)cc1-c1nc2c(cc1Cl)N1CC[C@@H](C1)N2C(=O)Nc1ccnc(OC[C@@H](O)CO)c1 [Example 103, (4S)-8-chloro-N-(2-((S)-2,3-dihydroxypropoxy)pyridin-4-yl)-7-(2-methoxy-5-(trifluoromethyl)pyridin-3-yl)-3,4-dihydro-1,4-methanopyrido[2,3-b][1,4]diazepine-5(2H)-carboxamide]
TRP Activity (EC1.5) [2]: B (EC1.5 1-25 μM)
TRP MAX RESP (percent maximum fold activation) [3]: A (Fold activation ≧150%)

Cc1ccc(-c2nc3c(cc2F)N2CC[C@@H](C2)N3C(=O)Nc2cccnc2)cn1 [Example 7, (4S)-8-fluoro-7-(6-methylpyridin-3-yl)-N-(pyridin-3-yl)-3,4-dihydro-1,4-methanopyrido[2,3-b][1,4]diazepine-5(2H)-carboxamide]
TRP Activity (EC1.5): B (key: A: EC1.5<1 μM; B: EC1.5 1-25 μM; EC1.5>25 μM)
TRP MAX RESP (percent maximum fold activation): A (key: A: Fold activation ≧150%; B: Fold Activation <150%)
